This is an account of results in patent US20230295200A1 (REGENTS OF THE UNIVERSITY OF MICHIGAN, priority 2022, published 2023).

For one assay, the target named is T1, STAT6 protein (Homo sapiens, UniProt P42226).
T1 sequence (P42226 1-847): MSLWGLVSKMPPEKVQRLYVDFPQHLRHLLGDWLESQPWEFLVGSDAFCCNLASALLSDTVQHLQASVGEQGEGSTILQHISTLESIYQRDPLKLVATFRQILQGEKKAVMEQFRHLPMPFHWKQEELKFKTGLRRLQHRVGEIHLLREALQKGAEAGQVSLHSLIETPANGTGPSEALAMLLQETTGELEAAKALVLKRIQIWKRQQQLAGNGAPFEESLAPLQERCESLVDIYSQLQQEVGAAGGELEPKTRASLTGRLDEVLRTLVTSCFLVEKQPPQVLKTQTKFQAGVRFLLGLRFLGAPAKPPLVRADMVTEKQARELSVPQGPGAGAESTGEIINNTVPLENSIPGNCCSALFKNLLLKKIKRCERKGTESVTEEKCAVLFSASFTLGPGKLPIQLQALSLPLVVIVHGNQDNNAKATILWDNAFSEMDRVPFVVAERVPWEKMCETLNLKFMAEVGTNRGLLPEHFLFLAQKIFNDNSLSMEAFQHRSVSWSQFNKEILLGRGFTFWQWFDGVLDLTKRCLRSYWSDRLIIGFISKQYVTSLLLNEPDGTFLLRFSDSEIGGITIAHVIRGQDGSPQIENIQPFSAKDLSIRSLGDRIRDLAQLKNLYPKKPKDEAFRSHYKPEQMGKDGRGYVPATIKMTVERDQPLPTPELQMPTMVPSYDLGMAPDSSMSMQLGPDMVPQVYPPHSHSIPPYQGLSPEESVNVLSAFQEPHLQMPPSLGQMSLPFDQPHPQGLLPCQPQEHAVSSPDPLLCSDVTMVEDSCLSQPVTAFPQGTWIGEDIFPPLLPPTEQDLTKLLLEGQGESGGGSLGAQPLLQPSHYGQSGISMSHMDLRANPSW
Briefly: Fluorescence polarization (FP) binding assay, STAT6.
Settings: not given
An outline of the steps:
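Each well holds 200 nM STAT5 and/or STAT6 with 5 nM fluorescent tracer in PBS pH 7.4 (0.01% BGG, 0.01% Tween-20, 2 mM DTT). Binding reaches equilibrium over 1 h at room temperature after brief shaking, and polarization data are fitted nonlinearly.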
`CCOP(=O)(O)C(F)(F)c1ccc2sc(C(=O)N[C@H]3CN(C(C)=O)CC[C@H]4CC[C@@H](C(=O)N5CCCC56CCCC6)N4C3=O)cc2c1` [Compound 386, ethyl hydrogen ((2-(((5S,8S,10aR)-3-acetyl-6-oxo-8-(1-azaspiro[4.4]nonane-1-carbonyl)decahydropyrrolo[1,2-a][1,5]diazocin-5-yl)carbamoyl)benzo[b]thiophen-5-yl)difluoromethyl)phosphonate] registered a Ki above 10 µM.

The assay is the same for the next values; noted with them: FP competition, 5 nM fluorescein-labeled tracer, 200 nM protein, PBS pH7.4; read-out: Binding STAT6.
For the compound `CC(=O)N1CC[C@H]2CC[C@@H](C(=O)N3CCCC34CCCC4)N2C(=O)[C@@H](NC(=O)c2cc3cc(C(F)(F)P(=O)(O)O)ccc3s2)C1` [Compound 387, ((2-(((5S,8S,10aR)-3-acetyl-6-oxo-8-(1-azaspiro[4.4]nonane-1-carbonyl)decahydropyrrolo[1,2-a][1,5]diazocin-5-yl)carbamoyl)benzo[b]thiophen-5-yl)difluoromethyl)phosphonic acid], the Ki is above 10 µM.

Turning to `CCN(C(=O)[C@@H]1CC[C@@H]2CCN(C(C)=O)C[C@H](NC(=O)c3cc4cc(C(F)(F)P(=O)(O)O)ccc4s3)C(=O)N21)c1ccc(Cl)cc1` [Compound 388, ((2-(((5S,8S,10aR)-3-acetyl-8-((4-chlorophenyl)(ethyl)carbamoyl)-6-oxodecahydropyrrolo[1,2-a][1,5]diazocin-5-yl)carbamoyl)benzo[b]thiophen-5-yl)difluoromethyl)phosphonic acid], the Ki was above 10 µM.

In the case of `CC(=O)N1CC[C@H]2CC[C@@H](C(=O)N(c3ccc(Cl)cc3)C(C)C)N2C(=O)[C@@H](NC(=O)c2cc3cc(C(F)(F)P(=O)(O)O)ccc3s2)C1` [Compound 389, ((2-(((5S,8S,10aR)-3-acetyl-8-((4-chlorophenyl)(isopropyl)carbamoyl)-6-oxodecahydropyrrolo[1,2-a][1,5]diazocin-5-yl)carbamoyl)benzo[b]thiophen-5-yl)difluoromethyl)phosphonic acid], the Ki lay in the range of 1 to 10 µM.

`CC(=O)N1CC[C@H]2CC[C@@H](C(=O)N3CCC(C)(C(C)C)C3)N2C(=O)[C@@H](NC(=O)c2cc3cc(C(F)(F)P(=O)(O)O)ccc3s2)C1` (stereo partly drawn) [Compound 390, ((2-(((5S,8S,10aR)-3-acetyl-8-(3-isopropyl-3-methylpyrrolidine-1-carbonyl)-6-oxodecahydropyrrolo[1,2-a][1,5]diazocin-5-yl)carbamoyl)benzo[b]thiophen-5-yl)difluoromethyl)phosphonic acid]: the Ki is above 10 µM.

With `CC(=O)N1CC[C@H]2CC[C@@H](C(=O)N3CCCCC4(CCCC4)C3)N2C(=O)[C@@H](NC(=O)c2cc3cc(C(F)(F)P(=O)(O)O)ccc3s2)C1` [Compound 391, ((2-(((5S,85,10aR)-3-acetyl-6-oxo-8-(7-azaspiro[4.6]undecane-7-carbonyl)decahydropyrrolo[1,2-a][1,5]diazocin-5-yl)carbamoyl)benzo[b]thiophen-5-yl)difluoromethyl)phosphonic acid], the Ki is above 10 µM.

In the case of `CC(=O)N1CC[C@H]2CC[C@@H](C(=O)N3CCC(C(N)=O)(C(F)(F)F)C3)N2C(=O)[C@@H](NC(=O)c2cc3cc(C(F)(F)P(=O)(O)O)ccc3s2)C1` (stereo partly drawn) [Compound 392, ((2-(((5S,8S,10aR)-3-acetyl-8-(3-carbamoyl-3-(trifluoromethyl)pyrrolidine-1-carbonyl)-6-oxodecahydropyrrolo[1,2-a][1,5]diazocin-5-yl)carbamoyl)benzo[b]thiophen-5-yl)difluoromethyl)phosphonic acid], the Ki is above 10 µM.

Take `CC(=O)N1CC[C@H]2CC[C@@H](C(=O)N3CCC(C)(c4ccccc4)C3)N2C(=O)[C@@H](NC(=O)c2cc3cc(C(F)(F)P(=O)(O)O)ccc3s2)C1` (stereo partly drawn) [Compound 393, ((2-(((5S,8S,10aR)-3-acetyl-8-(3-methyl-3-phenylpyrrolidine-1-carbonyl)-6-oxodecahydropyrrolo[1,2-a][1,5]diazocin-5-yl)carbamoyl)benzo[b]thiophen-5-yl)difluoromethyl)phosphonic acid]: the Ki was above 10 µM.

For the compound `CC(=O)N1CC[C@H]2CC[C@@H](C(=O)N(C)c3ccc(Br)cc3)N2C(=O)[C@@H](NC(=O)c2cc3cc(C(F)(F)P(=O)(O)O)ccc3s2)C1` [Compound 394, ((2-(((5S,8S,10aR)-3-acetyl-8-((4-bromophenyl)(methyl)carbamoyl)-6-oxodecahydropyrrolo[1,2-a][1,5]diazocin-5-yl)carbamoyl)benzo[b]thiophen-5-yl)difluoromethyl)phosphonic acid], the Ki is above 10 µM.

`CC(=O)N1CC[C@H]2CC[C@@H](C(=O)N3CCC(C)(C4CC4)C3)N2C(=O)[C@@H](NC(=O)c2cc3cc(C(F)(F)P(=O)(O)O)ccc3s2)C1` (stereo partly drawn) [Compound 395, ((2-(((5S,8S,10aR)-3-acetyl-8-(3-cyclopropyl-3-methylpyrrolidine-1-carbonyl)-6-oxodecahydropyrrolo[1,2-a][1,5]diazocin-5-yl)carbamoyl)benzo[b]thiophen-5-yl)difluoromethyl)phosphonic acid]: the Ki is above 10 µM.

The target in another assay is T2, STAT5A (Homo sapiens, UniProt P42229).
T2 sequence (P42229 1-794): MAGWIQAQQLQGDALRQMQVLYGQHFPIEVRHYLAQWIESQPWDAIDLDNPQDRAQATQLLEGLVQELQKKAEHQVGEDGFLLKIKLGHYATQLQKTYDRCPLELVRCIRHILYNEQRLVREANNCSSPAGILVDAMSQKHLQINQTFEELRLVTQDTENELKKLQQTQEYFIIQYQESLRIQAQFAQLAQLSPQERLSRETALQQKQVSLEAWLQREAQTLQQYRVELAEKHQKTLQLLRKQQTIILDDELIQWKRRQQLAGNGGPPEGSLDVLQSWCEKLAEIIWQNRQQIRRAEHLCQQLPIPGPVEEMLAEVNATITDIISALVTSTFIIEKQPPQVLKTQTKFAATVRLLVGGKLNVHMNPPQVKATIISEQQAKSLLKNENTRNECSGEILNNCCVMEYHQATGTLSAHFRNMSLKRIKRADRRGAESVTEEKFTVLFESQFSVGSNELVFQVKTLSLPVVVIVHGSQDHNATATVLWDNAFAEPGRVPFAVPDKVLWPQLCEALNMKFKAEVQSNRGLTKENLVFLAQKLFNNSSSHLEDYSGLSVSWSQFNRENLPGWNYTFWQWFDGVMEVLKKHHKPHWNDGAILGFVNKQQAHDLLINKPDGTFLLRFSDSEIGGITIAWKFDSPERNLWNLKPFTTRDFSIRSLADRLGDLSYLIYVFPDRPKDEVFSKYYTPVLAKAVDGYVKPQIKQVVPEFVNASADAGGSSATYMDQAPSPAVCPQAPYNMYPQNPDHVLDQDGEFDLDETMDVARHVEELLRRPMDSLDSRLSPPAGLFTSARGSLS
Briefly: Fluorescence polarization (FP) binding assay, STAT5A. Conditions: FP competition, 5 nM fluorescein-labeled tracer, 200 nM protein, PBS pH7.4. On the procedure:
Evaluation of the activity of the inhibitors may be accomplished by fluorescence polarization (FP) experiments. A representative general protocol is the following:
Fluorescence polarization (FP) experiments are performed in black round-bottom plates using the CLARIOstar microplate reader. To each well, fluorescein-labeled tracer and STAT5 or STAT6 protein are added in assay buffer. […] The inhibition constants are determined as the concentration of the STAT5 or STAT6 at which 50% of the ligand is bound.
Fluorescence polarization (FP) experiments were performed in 96-well, black round-bottom plates (Microfluor 2, Fisher Scientific) using the CLARIOstar microplate reader (BMG Labtech). To each well, 5 nM of fluoresceinlabeled tracer and 200 nM of STAT5 and/or STAT6 protein were added to a final volume of 100 μl in the assay buffer (PBS pH7.4+0.01% BGG+0.01% Tween-20, 2 mM DTT). The plate was mixed on a shaker for 15 m and incubated at room temperature for 1 h to reach equilibrium. […] All experimental data were analyzed using Prism 8.0 software (GraphPad Software), and the inhibition constants were determined by nonlinear curve fitting as the concentration of the STAT5 and/or STAT6 at which 50% of the ligand is bound.
On the technique in general: Polarisation of emitted light reports the rotation of a fluorescent probe.
Regarding `CC(C)(C)[C@H](NC(=O)c1cc2cc(C(F)(F)P(=O)(O)O)ccc2s1)C(=O)N1CCC[C@H]1C(=O)Nc1nccs1` [Compound 247, ((2-(((S)-3,3-dimethyl-1-oxo-1-((S)-2-(thiazol-2-ylcarbamoyl)pyrrolidin-1-yl)butan-2-yl)carbamoyl)benzo[b]thiophen-5-yl)difluoromethyl)phosphonic acid], the Ki is 1 to 10 µM.

For the compound `CC(C)(C)[C@H](NC(=O)c1cc2cc(C(F)(F)P(=O)(O)O)ccc2s1)C(=O)N1CCC[C@H]1C(=O)Nc1ncc(CO)s1` [Compound 248, (difluoro(2-(((S)-1-((S)-2-((5-(hydroxymethyl)thiazol-2-yl)carbamoyl)pyrrolidin-1-yl)-3,3-dimethyl-1-oxobutan-2-yl)carbamoyl)benzo[b]thiophen-5-yl)methyl)phosphonic acid], the Ki was above 10 µM.

Consider `CC(C)(C)[C@H](NC(=O)c1cc2cc(C(F)(F)P(=O)(O)O)ccc2s1)C(=O)N1CCC[C@H]1C(=O)Nc1ncc(C2CCOCC2)s1` [Compound 249, ((2-(((S)-3,3-dimethyl-1-oxo-1-((S)-2-((5-(tetrahydro-2H-pyran-4-yl)thiazol-2-yl)carbamoyl)pyrrolidin-1-yl)butan-2-yl)carbamoyl)benzo[b]thiophen-5-yl)difluoromethyl)phosphonic acid], for which the Ki is 1 to 10 µM.
